Experiment [1] has as its target T1, Muscarinic acetylcholine receptor M1 (Homo sapiens, UniProt P11229).
T1 sequence (P11229 whole entry): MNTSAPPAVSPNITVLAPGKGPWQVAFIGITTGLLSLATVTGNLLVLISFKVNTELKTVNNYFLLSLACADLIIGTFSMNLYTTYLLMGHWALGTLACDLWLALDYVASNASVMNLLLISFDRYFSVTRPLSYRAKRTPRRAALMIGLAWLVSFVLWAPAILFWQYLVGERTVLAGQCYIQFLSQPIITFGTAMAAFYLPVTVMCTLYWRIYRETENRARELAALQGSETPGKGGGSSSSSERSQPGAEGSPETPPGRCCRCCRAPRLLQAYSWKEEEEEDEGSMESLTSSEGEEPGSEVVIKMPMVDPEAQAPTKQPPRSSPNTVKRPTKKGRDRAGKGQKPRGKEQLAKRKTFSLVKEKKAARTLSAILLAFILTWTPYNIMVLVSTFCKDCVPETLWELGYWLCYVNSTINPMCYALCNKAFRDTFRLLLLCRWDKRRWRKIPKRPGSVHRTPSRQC
The experiment is described as follows: Binding affinity towards the cloned human Muscarinic acetylcholine receptor M1.

Experiment [2] addresses Muscarinic acetylcholine receptors; M1 & M2 (Homo sapiens) (UniProt P11229+P08172). Briefly: Ratio of binding affinity to M1 receptor compared to that of M2 receptor. In kind it is protein assay.
Experiment [3] has as its target T2, Muscarinic acetylcholine receptor M2 (Homo sapiens, UniProt P08172).
T2 sequence (P08172 whole entry): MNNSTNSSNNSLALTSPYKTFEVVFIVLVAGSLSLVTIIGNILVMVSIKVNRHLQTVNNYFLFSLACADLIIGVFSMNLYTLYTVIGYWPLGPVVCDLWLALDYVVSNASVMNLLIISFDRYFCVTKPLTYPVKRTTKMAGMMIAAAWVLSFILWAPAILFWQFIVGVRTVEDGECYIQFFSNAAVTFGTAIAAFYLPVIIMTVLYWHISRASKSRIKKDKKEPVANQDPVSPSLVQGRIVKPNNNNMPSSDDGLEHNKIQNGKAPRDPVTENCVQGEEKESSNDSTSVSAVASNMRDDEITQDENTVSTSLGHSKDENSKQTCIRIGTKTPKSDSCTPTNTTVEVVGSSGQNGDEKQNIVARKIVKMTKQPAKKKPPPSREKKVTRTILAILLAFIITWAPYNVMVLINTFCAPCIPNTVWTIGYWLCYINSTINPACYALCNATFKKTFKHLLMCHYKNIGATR
The experiment is described as follows: Binding affinity towards the cloned human Muscarinic acetylcholine receptor M2.

Molecules are shown by their SMILES. Several values for one entry are separate records, joined by “and”; a condition that tells them apart may be missing. Identical values can stand only once.

The Ki is the dissociation constant of the complex between target and ligand, obtained from inhibition or displacement. In the case of `CC(c1ccc(S(=O)(=O)c2ccccc2)cc1)N1CCNCC1` (stereo unspecified), the inhibitory constant (Ki) came to 57 nM in experiment [1] and 37 nM in experiment [3]. Besides, the Ratio in experiment [2] was 1.6.

Take `COc1ccc([S+]([O-])c2ccc(C(C#N)N3CCN(C4CCCCC4)CC3)cc2)cc1` (stereo unspecified): the results for the Ki in experiment [1] and in experiment [3] were 117 nM and 8 nM, respectively. The Ratio in experiment [2] came out at 14.

Consider `COc1ccc([S@@+]([O-])c2ccc(C(C#N)N3CCN(C4CCCCC4)CC3)cc2)cc1` (single isomer, unassigned; form 1) [listing 1 of 2 here], for which the Ratio in experiment [2] worked out at 15.

Take `CC(c1ccc(S(=O)(=O)c2ccc(S(C)(=O)=O)cc2)cc1)N1CCN(C2CCCCC2)CC1` (stereo unspecified): the values for the Ki in experiment [1] and in experiment [3] were 106 nM and 36 nM, respectively. Besides, the Ratio in experiment [2] stood at 3.

Regarding `CC(c1ccc(S(=O)(=O)c2ccccc2)cc1)N1CCN(C2CCCCC2)CC1` (stereo unspecified), the figures for the Ki in experiment [1] and in experiment [3] were 1.3 nM and 0.2 nM, respectively. The Ratio in experiment [2] amounted to 6.

For the molecule `Cc1ccc(S(=O)(=O)c2ccc(C(C)N3CCN(C4CCCCC4)CC3)cc2)cc1` (stereo unspecified), the Ki came out at 11 nM in experiment [1] and 0.8 nM in experiment [3]. The Ratio in experiment [2] was found to be 14.

For `COc1ccc([S+]([O-])c2ccc(C(C(N)=O)N3CCN(C4CCCCC4)CC3)cc2)cc1` (stereo unspecified), the Ki worked out at 242 nM in experiment [1] and 40 nM in experiment [3]. For the same molecule, the Ratio in experiment [2] turned out to be 6.

On to `CC(c1ccc(S(=O)(=O)c2ccc(C(C)(C)C)cc2)cc1)N1CCN(C2CCCCC2)CC1` (stereo unspecified), for which the Ki in experiment [1] was 85 nM; in experiment [3], 33 nM. In experiment [2], the Ratio was 2.6.

For `COc1ccc([S@@+]([O-])c2ccc(C(C#N)N3CCN(C4CCCCC4)CC3)cc2)cc1` (single isomer, unassigned; form 2) [listing 1 of 2 here], the Ratio in experiment [2] is 22 and 9.

For `CC(c1ccc(S(=O)(=O)c2ccccc2)cc1)N1CCN(C)CC1` (stereo unspecified), the figures for the Ki in experiment [1] and in experiment [3] were 96 nM and 34 nM, respectively. In addition, in experiment [2], the Ratio was 3.

As for `CC(c1ccc(S(=O)(=O)c2ccccc2)cc1)N1CCN(CCO)CC1` (stereo unspecified), the Ki turned out to be 77 nM in experiment [1] and 26 nM in experiment [3]. Moreover, the Ratio in experiment [2] came out at 3.

On to `COc1ccc([S@@+]([O-])c2ccc(C(C#N)N3CCN(C4CCCCC4)CC3)cc2)cc1` (stereo in doubt; 1) [listing 1 of 2 here], for which the Ki in experiment [3] was 2.7 nM. In other words, the single-digit nanomolar range.

Regarding `CC(c1ccc(S(=O)(=O)c2ccccc2)cc1)N1CCN(c2ccccc2)CC1` (stereo unspecified), the inhibitory constant (Ki) stood at 4770 nM in experiment [1] and 4600 nM in experiment [3]. For the same molecule, the Ratio in experiment [2] came to 1.

For `COc1ccc(S(=O)(=O)c2ccc(C(C)N3CCN(C4CCCCC4)CC3)cc2)cc1` (stereo unspecified), the figures for the Ki in experiment [1] and in experiment [3] were 6 nM and 0.6 nM, respectively. In experiment [2], the Ratio was 10.

In the case of `COc1ccc([S+]([O-])c2ccc(C(N3CCN(C4CCCCC4)CC3)C(F)(F)F)cc2)cc1` (stereo unspecified), the Ki worked out at 23 nM in experiment [1] and 5 nM in experiment [3]. In experiment [2], the Ratio worked out at 5.

As to `COc1ccc([S+]([O-])c2ccc(C(C)N3CCN(C4CCCCC4)CC3)cc2)cc1` (stereo unspecified), the Ratio in experiment [2] amounted to 6.

On to `COc1ccc([S@@+]([O-])c2ccc(C(C#N)N3CCN(C4CCCCC4)CC3)cc2)cc1` (single isomer, unassigned; form 1) [listing 2 of 2 here], for which the Ki is 140 nM and 253 nM in experiment [1]; 9 nM and 17 nM in experiment [3].

Turning to `COc1ccc([S@@+]([O-])c2ccc(C(C#N)N3CCN(C4CCCCC4)CC3)cc2)cc1` (stereo in doubt; 1) [listing 2 of 2 here], the Ratio in experiment [2] turned out to be 40.

On to `COc1ccc([S+]([O-])c2ccc(C(C3CCCCC3)N3CCN(C4CCCCC4)CC3)cc2)cc1` (stereo unspecified), for which the Ki in experiment [1] came to 52 nM; in experiment [3] it was 17 nM. Moreover, the Ratio in experiment [2] was determined as 3.

Take `CCOC(=O)N1CCN(C(C)c2ccc(S(=O)(=O)c3ccccc3)cc2)CC1` (stereo unspecified): the results for the Ki in experiment [1] and in experiment [3] were 200 nM and 135 nM, respectively. Besides, the Ratio in experiment [2] was 1.5.

For the molecule `COc1ccc([S@@+]([O-])c2ccc(C(C#N)N3CCN(C4CCCCC4)CC3)cc2)cc1` (single isomer, unassigned; form 2) [listing 2 of 2 here], the Ki in experiment [1] is 83 nM and 180 nM; in experiment [3], 3.8 nM and 20 nM.

The record behind these values is ChEMBL document CHEMBL1132769, “Diphenyl sulfoxides as selective antagonists of the muscarinic M2 receptor” (Bioorg Med Chem Lett, 2000).
